Data: patent US11622970B2, “BCL-2 inhibitors and their use as pharmaceuticals” (PRELUDE THERAPEUTICS INCORPORATED, priority 2020, dated 2023)

Molecular target: BCL-2 recombinant protein (Homo sapiens, UniProt P10415)
Experiment: Cell free Bcl-2:Bak affinity assay (Bcl-2 Bak), HTRF competition of FAM-Bak peptide
Format: binding
Settings: 10-concentration IC50 mode, 4 nM BCL-2 recombinant protein, 100 nM FAM-Bak, read-out: potency (IC50)
Outline: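 Compounds in 10-point 3-fold dilution preincubated 10 min at RT with 4 nM GST-BCL-2 (20 mM K phosphate pH 7.5, 50 mM NaCl, 1 mM EDTA, 0.005% Triton X-100), then 100 nM FAM-Bak 10 min, anti-GST-Tb added, 60 min RT dark. HTRF read; % inhibition vs DMSO and positive control, IC50 from curve fit.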

Chain of BCL-2 recombinant protein (P10415 whole entry): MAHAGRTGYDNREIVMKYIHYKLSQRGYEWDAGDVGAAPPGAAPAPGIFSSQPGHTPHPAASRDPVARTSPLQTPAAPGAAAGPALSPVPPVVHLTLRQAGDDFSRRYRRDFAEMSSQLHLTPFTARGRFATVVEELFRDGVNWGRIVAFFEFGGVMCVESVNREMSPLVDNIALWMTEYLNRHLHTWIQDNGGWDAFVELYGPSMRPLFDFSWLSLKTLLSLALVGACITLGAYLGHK

SMILES | IC50 [nM]
CCOc1c([N+](=O)[O-])cc(C(=O)NS(=O)(=O)c2ccc(N3CCN(CC4=C(c5ccc(Cl)cc5)CC(C)(C)CC4)CC3)cc2Oc2cnc3[nH]ccc3c2)c(Cl)c1C [Example 102, 2-chloro-N-[4-[4-[[2-(4-chlorophenyl)-4,4-dimethylcyclohexen-1-yl]methyl]piperazin-1-yl]-2-(1H-pyrrolo[2,3-b]pyridin-5-yloxy)phenyl]sulfonyl-4-ethoxy-3-methyl-5-nitrobenzamide] | 100 to 1000
Cc1c(Cl)c(C(=O)NS(=O)(=O)c2ccc(N3CCN(CC4=C(c5ccc(Cl)cc5)CC(C)(C)CC4)CC3)cc2Oc2cnc3[nH]ccc3c2)cc([N+](=O)[O-])c1OCC1COC1 [Example 103, 2-chloro-N-[4-[4-[[2-(4-chlorophenyl)-4,4-dimethylcyclohexen-1-yl]methyl]piperazin-1-yl]-2-(1H-pyrrolo[2,3-b]pyridin-5-yloxy)phenyl]sulfonyl-3-methyl-5-nitro-4-(oxetan-3-ylmethoxy)benzamide] | 10 to 100
Cc1c(Cl)c(C(=O)NS(=O)(=O)c2ccc(N3CCN(CC4=C(c5ccc(Cl)cc5)CC(C)(C)CC4)CC3)cc2Oc2cnc3[nH]ccc3c2)cc([N+](=O)[O-])c1OCC1CCOC1 (stereo not shown) [Example 106, 2-chloro-N-[4-[4-[[2-(4-chlorophenyl)-4,4-dimethylcyclohexen-1-yl]methyl]piperazin-1-yl]-2-(1H-pyrrolo[2,3-b]pyridin-5-yloxy)phenyl]sulfonyl-3-methyl-5-nitro-4-(oxolan-3-ylmethoxy)benzamide] | < 10
Cc1c(Cl)c(C(=O)NS(=O)(=O)c2ccc(N3CCN(CC4=C(c5ccc(Cl)cc5)CC(C)(C)CC4)CC3)cc2Oc2cnc3[nH]ccc3c2)cc([N+](=O)[O-])c1OCC1CCCO1 (stereo not shown) [Example 107, 2-chloro-N-[4-[4-[[2-(4-chlorophenyl)-4,4-dimethylcyclohexen-1-yl]methyl]piperazin-1-yl]-2-(1H-pyrrolo[2,3-b]pyridin-5-yloxy)phenyl]sulfonyl-3-methyl-5-nitro-4-(oxolan-2-ylmethoxy)benzamide] | < 10
